Experiments:
Conditions in all cases: Compound concentration 1000.0 nM
[1] = system: Tyrosine-protein kinase ABL1 (Homo sapiens), P00519 [F317I]
[2] = target: Calcium/calmodulin-dependent protein kinase type II subunit delta (Homo sapiens) (UniProt Q13557)
[3] = system: Receptor-type tyrosine-protein kinase FLT3 (Homo sapiens), P36888 [R834Q]
[4] = target: T1, Tyrosine-protein kinase JAK3 (Homo sapiens) (UniProt P52333)
T1 sequence (whole entry): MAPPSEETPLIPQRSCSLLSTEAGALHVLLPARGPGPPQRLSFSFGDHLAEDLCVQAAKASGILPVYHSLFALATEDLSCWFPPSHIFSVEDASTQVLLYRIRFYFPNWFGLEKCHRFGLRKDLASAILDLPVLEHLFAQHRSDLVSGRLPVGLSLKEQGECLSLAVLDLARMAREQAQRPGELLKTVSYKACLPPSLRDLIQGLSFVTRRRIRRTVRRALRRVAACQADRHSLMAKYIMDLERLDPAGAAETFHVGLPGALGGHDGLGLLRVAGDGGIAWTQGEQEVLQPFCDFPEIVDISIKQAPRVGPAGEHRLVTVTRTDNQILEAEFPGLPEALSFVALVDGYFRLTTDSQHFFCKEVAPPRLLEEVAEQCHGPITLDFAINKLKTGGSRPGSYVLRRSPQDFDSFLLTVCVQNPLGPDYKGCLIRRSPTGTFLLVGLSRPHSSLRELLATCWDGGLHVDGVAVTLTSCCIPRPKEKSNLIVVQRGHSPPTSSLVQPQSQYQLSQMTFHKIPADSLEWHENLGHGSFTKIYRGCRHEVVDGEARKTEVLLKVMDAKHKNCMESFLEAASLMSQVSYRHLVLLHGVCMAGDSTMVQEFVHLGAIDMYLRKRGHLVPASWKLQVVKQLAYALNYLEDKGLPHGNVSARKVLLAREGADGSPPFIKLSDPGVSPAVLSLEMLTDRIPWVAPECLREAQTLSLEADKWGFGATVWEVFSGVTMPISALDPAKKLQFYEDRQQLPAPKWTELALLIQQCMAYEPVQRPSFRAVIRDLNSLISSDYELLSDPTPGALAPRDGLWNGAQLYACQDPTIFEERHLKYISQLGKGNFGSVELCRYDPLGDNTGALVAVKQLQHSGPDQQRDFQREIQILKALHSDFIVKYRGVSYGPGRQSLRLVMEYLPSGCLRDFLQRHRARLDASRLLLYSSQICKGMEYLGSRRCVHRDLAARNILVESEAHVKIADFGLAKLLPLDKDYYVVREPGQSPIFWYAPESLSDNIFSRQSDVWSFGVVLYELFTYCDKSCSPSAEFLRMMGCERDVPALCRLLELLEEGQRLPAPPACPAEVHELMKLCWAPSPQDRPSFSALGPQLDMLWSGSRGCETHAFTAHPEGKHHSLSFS

[5] = system: Leucine-rich repeat serine/threonine-protein kinase 2 (Homo sapiens), Q5S007 [G2019S]
[6] = target: T2, Mitogen-activated protein kinase kinase kinase kinase 3 (Homo sapiens) (UniProt Q8IVH8)
T2 sequence (whole entry): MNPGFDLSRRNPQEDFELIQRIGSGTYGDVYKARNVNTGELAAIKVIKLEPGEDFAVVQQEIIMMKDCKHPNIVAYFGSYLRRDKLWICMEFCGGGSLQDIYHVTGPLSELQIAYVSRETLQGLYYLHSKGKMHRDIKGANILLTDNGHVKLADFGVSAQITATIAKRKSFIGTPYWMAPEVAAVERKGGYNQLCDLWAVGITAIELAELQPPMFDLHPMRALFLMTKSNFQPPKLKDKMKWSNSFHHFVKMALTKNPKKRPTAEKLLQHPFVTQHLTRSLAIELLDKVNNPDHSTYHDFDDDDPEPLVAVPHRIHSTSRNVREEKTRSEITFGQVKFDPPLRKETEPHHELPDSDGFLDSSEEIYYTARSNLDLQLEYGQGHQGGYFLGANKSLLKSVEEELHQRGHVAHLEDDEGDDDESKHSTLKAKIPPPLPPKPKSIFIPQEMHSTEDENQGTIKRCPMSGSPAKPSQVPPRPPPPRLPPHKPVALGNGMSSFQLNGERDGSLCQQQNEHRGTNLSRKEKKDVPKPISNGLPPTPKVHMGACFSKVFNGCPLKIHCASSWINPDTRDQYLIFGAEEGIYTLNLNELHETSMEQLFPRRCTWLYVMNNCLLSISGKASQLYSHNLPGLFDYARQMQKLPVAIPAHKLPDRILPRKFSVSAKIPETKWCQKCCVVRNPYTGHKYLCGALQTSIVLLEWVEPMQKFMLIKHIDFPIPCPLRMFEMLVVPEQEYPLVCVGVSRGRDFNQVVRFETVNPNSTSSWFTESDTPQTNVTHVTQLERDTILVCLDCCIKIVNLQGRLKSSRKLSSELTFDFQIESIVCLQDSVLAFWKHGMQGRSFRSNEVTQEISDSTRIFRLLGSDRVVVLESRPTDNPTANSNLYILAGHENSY

[7] = target: Myosin light chain kinase, smooth muscle (Homo sapiens) (UniProt Q15746)
Myosin light chain kinase, smooth muscle (Homo sapiens), sequence (Q15746 whole entry, canonical isoform): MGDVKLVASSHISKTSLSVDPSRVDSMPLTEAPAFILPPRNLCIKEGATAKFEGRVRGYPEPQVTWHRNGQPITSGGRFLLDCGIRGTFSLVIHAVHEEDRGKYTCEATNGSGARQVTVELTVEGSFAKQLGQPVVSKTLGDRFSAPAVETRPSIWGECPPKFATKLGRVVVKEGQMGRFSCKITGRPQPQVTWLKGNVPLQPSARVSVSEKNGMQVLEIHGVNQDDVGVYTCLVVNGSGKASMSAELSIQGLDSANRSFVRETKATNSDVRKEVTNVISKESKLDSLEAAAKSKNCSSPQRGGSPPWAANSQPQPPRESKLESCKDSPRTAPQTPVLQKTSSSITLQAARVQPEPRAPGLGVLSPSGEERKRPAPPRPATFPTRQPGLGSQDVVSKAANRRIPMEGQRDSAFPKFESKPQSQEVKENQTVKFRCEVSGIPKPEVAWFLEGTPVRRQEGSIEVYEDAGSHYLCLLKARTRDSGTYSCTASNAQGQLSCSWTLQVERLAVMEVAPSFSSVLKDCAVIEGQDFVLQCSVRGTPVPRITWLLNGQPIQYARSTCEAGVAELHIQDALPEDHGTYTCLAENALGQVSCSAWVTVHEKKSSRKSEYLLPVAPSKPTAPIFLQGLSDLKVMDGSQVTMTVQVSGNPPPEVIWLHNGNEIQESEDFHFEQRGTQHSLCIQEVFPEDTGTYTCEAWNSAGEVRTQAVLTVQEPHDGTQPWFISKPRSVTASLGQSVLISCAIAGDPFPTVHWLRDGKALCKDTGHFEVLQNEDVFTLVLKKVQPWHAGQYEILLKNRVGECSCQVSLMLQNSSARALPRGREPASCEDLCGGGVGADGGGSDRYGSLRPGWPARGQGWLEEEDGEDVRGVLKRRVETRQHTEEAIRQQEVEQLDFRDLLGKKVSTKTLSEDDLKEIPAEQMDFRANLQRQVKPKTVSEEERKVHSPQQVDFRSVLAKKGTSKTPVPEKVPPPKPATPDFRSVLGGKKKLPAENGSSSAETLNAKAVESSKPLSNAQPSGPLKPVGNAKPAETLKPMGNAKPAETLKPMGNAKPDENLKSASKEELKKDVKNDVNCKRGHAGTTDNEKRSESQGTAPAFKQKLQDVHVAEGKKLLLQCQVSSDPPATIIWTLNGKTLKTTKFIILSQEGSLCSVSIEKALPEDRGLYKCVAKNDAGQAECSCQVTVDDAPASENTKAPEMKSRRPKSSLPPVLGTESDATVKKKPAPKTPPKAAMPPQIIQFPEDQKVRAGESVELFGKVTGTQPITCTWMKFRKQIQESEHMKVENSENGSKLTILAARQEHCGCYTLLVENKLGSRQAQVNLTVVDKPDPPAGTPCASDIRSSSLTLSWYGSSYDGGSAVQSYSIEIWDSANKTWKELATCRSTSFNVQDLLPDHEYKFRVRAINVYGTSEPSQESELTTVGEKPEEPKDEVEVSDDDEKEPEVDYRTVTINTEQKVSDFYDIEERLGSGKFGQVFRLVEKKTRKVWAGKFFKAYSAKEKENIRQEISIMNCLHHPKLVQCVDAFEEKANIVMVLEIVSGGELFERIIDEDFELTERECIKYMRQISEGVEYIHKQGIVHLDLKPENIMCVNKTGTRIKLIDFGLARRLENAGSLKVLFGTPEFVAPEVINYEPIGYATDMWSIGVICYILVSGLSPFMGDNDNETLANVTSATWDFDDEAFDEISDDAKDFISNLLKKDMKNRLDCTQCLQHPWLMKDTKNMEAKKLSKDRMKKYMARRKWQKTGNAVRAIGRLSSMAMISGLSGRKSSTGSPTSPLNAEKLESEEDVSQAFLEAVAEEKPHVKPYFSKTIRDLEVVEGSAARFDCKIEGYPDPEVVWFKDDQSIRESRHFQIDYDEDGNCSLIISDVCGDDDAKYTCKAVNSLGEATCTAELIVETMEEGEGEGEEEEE

[8] = system: Phosphatidylinositol 4,5-bisphosphate 3-kinase catalytic subunit alpha isoform (Homo sapiens), P42336 [H1047Y]
[9] = target: Serine/threonine-protein kinase PLK2 (Homo sapiens) (UniProt Q9NYY3)
Serine/threonine-protein kinase PLK2 (Homo sapiens), sequence (Q9NYY3 whole entry, looked up): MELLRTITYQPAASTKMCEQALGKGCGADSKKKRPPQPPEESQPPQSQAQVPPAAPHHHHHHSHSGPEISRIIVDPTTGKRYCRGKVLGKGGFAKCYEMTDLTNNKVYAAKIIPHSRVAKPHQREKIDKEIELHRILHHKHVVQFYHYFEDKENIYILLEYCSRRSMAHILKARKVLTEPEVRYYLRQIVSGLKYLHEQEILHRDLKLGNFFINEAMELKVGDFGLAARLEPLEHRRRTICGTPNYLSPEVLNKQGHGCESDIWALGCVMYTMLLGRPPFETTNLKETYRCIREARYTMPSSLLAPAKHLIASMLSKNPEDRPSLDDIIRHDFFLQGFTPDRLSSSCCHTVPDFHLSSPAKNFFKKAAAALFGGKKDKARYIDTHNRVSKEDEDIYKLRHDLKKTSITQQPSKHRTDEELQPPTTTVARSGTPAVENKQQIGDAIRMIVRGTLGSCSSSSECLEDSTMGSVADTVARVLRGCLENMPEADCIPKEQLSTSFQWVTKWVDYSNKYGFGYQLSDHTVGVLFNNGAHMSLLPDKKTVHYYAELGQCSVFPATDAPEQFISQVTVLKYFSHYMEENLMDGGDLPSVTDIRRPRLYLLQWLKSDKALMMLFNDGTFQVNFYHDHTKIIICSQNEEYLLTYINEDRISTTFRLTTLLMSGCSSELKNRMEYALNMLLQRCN

[10] = target: Serine/threonine-protein kinase D3 (Homo sapiens) (UniProt O94806)
Serine/threonine-protein kinase D3 (Homo sapiens), sequence (O94806 whole entry): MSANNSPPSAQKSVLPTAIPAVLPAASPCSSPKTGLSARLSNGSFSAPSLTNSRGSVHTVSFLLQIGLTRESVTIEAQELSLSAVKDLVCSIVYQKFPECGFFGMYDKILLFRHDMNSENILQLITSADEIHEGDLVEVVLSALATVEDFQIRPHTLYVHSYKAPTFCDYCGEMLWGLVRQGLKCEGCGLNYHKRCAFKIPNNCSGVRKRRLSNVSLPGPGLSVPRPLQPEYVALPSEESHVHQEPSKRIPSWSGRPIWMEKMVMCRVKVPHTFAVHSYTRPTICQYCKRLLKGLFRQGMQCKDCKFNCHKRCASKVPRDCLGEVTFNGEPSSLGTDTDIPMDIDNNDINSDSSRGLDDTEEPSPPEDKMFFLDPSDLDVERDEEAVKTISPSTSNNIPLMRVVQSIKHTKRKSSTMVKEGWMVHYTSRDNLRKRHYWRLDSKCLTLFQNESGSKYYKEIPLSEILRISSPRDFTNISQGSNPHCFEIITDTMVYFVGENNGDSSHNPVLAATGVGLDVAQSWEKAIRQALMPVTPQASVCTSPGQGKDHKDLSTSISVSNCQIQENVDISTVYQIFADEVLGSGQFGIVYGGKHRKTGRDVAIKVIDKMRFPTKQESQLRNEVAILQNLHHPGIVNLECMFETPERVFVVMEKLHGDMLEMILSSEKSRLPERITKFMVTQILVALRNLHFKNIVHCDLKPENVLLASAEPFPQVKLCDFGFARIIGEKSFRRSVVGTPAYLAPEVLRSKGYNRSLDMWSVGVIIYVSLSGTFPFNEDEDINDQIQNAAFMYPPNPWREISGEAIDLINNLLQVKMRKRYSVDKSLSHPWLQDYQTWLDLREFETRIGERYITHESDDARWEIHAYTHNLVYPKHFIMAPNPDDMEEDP

[11] = target: Serine/threonine-protein kinase 16 (Homo sapiens) (UniProt O75716)
Serine/threonine-protein kinase 16 (Homo sapiens), sequence (O75716 whole entry): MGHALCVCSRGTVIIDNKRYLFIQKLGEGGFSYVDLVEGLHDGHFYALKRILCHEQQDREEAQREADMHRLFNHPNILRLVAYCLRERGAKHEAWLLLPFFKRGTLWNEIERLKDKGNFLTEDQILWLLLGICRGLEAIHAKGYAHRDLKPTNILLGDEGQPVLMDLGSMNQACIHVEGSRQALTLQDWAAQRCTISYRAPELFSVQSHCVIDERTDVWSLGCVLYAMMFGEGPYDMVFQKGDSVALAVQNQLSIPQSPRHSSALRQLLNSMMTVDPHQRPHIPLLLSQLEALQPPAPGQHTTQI

Measured: residual activity

Tyrosine-protein kinase ABL1 (Homo sapiens), P00519 [F317I], sequence (P00519 whole entry F317I): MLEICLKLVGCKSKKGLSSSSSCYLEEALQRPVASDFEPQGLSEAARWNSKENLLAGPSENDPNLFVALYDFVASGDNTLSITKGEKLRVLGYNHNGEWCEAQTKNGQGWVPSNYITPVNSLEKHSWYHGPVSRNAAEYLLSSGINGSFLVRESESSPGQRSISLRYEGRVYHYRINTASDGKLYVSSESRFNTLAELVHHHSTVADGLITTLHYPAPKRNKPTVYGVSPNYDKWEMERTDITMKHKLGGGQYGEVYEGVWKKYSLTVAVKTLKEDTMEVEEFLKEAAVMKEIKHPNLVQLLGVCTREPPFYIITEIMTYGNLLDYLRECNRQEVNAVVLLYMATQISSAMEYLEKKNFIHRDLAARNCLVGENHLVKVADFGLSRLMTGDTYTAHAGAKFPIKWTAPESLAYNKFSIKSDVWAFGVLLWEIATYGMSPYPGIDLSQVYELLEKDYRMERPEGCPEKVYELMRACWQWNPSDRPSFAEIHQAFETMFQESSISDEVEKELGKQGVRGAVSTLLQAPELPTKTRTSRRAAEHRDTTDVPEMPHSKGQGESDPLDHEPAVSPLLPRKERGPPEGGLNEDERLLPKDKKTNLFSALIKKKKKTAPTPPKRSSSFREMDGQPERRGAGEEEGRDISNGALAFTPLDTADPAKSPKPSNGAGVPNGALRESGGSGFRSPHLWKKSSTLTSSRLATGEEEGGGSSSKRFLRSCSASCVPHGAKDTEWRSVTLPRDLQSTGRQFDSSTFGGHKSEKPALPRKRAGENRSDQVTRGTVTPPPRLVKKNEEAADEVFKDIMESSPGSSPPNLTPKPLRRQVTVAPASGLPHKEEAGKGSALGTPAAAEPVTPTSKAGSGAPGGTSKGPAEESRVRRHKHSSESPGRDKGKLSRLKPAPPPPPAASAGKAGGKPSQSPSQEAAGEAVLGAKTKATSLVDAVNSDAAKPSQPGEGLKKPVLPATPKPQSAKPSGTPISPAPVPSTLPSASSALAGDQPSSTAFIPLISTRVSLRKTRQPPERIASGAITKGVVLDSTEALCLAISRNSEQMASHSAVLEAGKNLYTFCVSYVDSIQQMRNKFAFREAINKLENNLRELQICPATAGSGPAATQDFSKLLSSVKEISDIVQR

CC1=C(C#N)C(c2ccc3c(c2)c(NC(=O)c2ccccc2C)nn3C)C(C#N)=C(C)N1 [BAY-974]
inactive: [1] 100% | [2] 100% | [3] 90% | [4] 83% | [5] 100% | [6] 80% | [7] 100% | [8] 91% | [9] 74% | [10] 72% | [11] 83%

CCc1ccccc1C(=O)Nc1n[nH]c2c(C)c(F)c(C3C(C#N)=C(C)N(C)C(C)=C3C#N)cc12 [BAY-3827]
inactive: [1] 100% | [2] 78% | [3] 89% | [4] 79% | [5] 100% | [6] 100% | [7] 55% | [8] 77% | [9] 97% | [10] 88% | [11] 79%

From ChEMBL document CHEMBL4507319 (2021)
